Values quoted from earlier work as cited in PMC10687071 (The Journal of Biological Chemistry, 2023).

Columns and labels:
[1] = tested on: PAS domains of ERG3 channels; design: method as in PMID 32723862; conditions: cited from earlier work
[2] = tested on: PAS domains of EAG channels; design: method as in PMID 31315662, PMID 32047112; conditions: cited from earlier work

Row | Structure (SMILES) | Binding to PAS domains of ERG3 channels [1] | Binding to PAS domains of EAG channels [2]
1 | C=CC1=C(C)c2cc3[n-]c(cc4[n-]c(cc5nc(cc1n2)C(C)=C5C=C)c(C)c4CCC(=O)O)c(CCC(=O)O)c3C.[Fe+2] [heme] | bind | –
2 | C=CCCCCCCCCC(=O)O [undecylenic acid] | – | bind
3 | CN(C)CCCN1c2ccccc2Sc2ccc(Cl)cc21 [chlorpromazine] | – | bind
